# Legend:
# [1] = tested on: Phaeosphaeria nodorum (Septoria nodorum); test: Phaeosphaeria nodorum (Septoria nodorum) / wheat / leaf disc preventative (glume blotch); format: in vivo; settings: Parastagonospora nodorum, foliar, wheat cv Kanzler leaf segments, inoculated 2 days after application, assessed 5-7 days after application, read-out: control of Phaeosphaeria nodorum (percent disease control compared to untreated)
# [2] = tested on: Glomerella lagenarium (Colletotrichum lagenarium); test: Glomerella lagenarium (Colletotrichum lagenarium) / liquid culture (anthracnose); format: cell-based; settings: Colletotrichum orbiculare, PDB potato dextrose broth, 96-well plate, 24° C., 3-4 days after application, read-out: control of Glomerella lagenarium (inhibition of growth, photometric)
# [3] = tested on: Mycosphaerella graminicola (Septoria tritici); test: Mycosphaerella graminicola (Septoria tritici) / liquid culture (Septoria blotch); format: cell-based; settings: Zymoseptoria tritici, PDB potato dextrose broth, 96-well plate, 24° C., 4-5 days after application, read-out: control of Mycosphaerella graminicola (inhibition of growth, photometric)
# [4] = tested on: Botryotinia fuckeliana (Botrytis cinerea); test: Botryotinia fuckeliana (Botrytis cinerea) / liquid culture (gray mould); format: cell-based; settings: Vogels broth, 96-well plate, 24° C., 3-4 days after application, read-out: control of Botryotinia fuckeliana (inhibition of growth, photometric)
# [5] = tested on: Monographella nivalis (Microdochium nivale); test: Monographella nivalis (Microdochium nivale) / liquid culture (foot rot cereals); format: cell-based; settings: PDB potato dextrose broth, 96-well plate, 24° C., 4-5 days after application, read-out: control of Monographella nivalis (inhibition of growth, photometric)
# Protocol: Monographella nivalis (Microdochium nivale)/Liquid Culture (Foot Rot Cereals): Conidia of the fungus from cryogenic storage were directly mixed into nutrient broth (PDB potato dextrose broth). After placing a DMSO solution of test compound into a 96-well microtiter plate at an application rate of 200 ppm, the nutrient broth containing the fungal spores was added. The test plates were incubated at 24° C. and the inhibition of growth was determined photometrically 4-5 days after application. […].103
# [6] = tested on: Mycosphaerella arachidis (Cercospora arachidicola); test: Mycosphaerella arachidis (Cercospora arachidicola) / liquid culture (early leaf spot); format: cell-based; settings: PDB potato dextrose broth, 96-well plate, 24° C., 4-5 days after application, read-out: control of Mycosphaerella arachidis (inhibition of growth, photometric)
# Pyrenophora teres = Pyrenophora teres / barley / leaf disc preventative (net blotch); format: in vivo; settings: foliar, barley cv Hasso leaf segments, inoculated two days after application, assessed 5-7 days after application, read-out: control of Pyrenophora teres (disease control compared to untreated)
# Gaeumannomyces graminis = Gaeumannomyces graminis / liquid culture (take-all of cereals); format: cell-based; settings: liquid culture of mycelial fragments, PDB potato dextrose broth, 96-well plate, 24° C., 4-5 days after application, read-out: control of Gaeumannomyces graminis (inhibition of growth, photometric)
Compound,inhibition at 200 ppm [3] [%],inhibition at 200 ppm [4] [%],inhibition at 200 ppm [6] [%],also measured
"CO/N=C(\C)c1cccc(CCCON=C(C)c2ccnc(-c3cccc(C)n3)n2)n1 (single isomer, unassigned) [P.63A]",≥ 80,–,–,pest or weed control at 200 ppm [1]: ≥ 80%; inhibition at 200 ppm [2]: ≥ 80%
"CO/N=C(\C)c1cccc(CCCON=C(C)c2ccnc(-c3cccc(C)n3)n2)n1 (single isomer, unassigned) [P.63B]",–,≥ 80,–,–
"C=C(CCO/N=C(\C)c1cccc(C)n1)c1cccc(/C(C)=N/OC)n1 [P.05, (E)-1-(6-{1-methylene-3-[1-(6-methyl-pyridin-2-yl)-eth-(E)-ylideneaminooxy]-propyl}-pyridin-2-yl)-ethanone O-methyl-oxime]",≥ 80,–,–,inhibition at 200 ppm [5]: ≥ 80%
C/C(=N\OCCCc1cccc(/C(C)=N/O)n1)c1cccc(C)n1 [P.11],≥ 80,≥ 80,–,–
CO/N=C(\C)c1cccc(C(CCO/N=C(\C)c2cccc(C)n2)=C(Cl)Cl)n1 [P.13],≥ 80,–,≥ 80,pest or weed control at 200 ppm [1]: ≥ 80%; pest or weed control at 200 ppm (Pyrenophora teres): ≥ 80%; inhibition at 200 ppm (Gaeumannomyces graminis): ≥ 80%
CO/N=C(\C)c1cccc(CCCO/N=C(\C)c2cccc(-c3cc(C)ccc3C)n2)n1 [P.15],≥ 80,≥ 80,≥ 80,pest or weed control at 200 ppm (Pyrenophora teres): ≥ 80%
CO/N=C(\C)c1cccc(CCCO/N=C(\C)c2cccc(-c3ccccc3O)n2)n1 [P.16],≥ 80,–,–,–
CO/N=C(\C)c1cccc(CCCO/N=C(\C)c2ccccn2)n1 [P.17],–,≥ 80,–,–
C#Cc1cccc(/C(C)=N/OCCCc2cccc(/C(C)=N/OC)n2)n1 [P.18],–,≥ 80,≥ 80,–
CO/N=C(\C)c1cccc(CCCO/N=C(\C)c2cccc(C3CC3)n2)n1 [P.20],≥ 80,≥ 80,≥ 80,pest or weed control at 200 ppm [1]: ≥ 80%; pest or weed control at 200 ppm (Pyrenophora teres): ≥ 80%
CO/N=C/c1cccc(CCCO/N=C(\C)c2cccc(C)n2)n1 [P.21],–,≥ 80,–,–
CO/N=C(\C)c1cccc(CCCO/N=C(\C)c2cccc(C(OC)OC)n2)n1 [P.29],≥ 80,≥ 80,≥ 80,–
CO/N=C(\C)c1cccc(CCCO/N=C(\C)c2cccc(-c3ccccc3)n2)n1 [P.33],≥ 80,≥ 80,≥ 80,–
CO/N=C(\C)c1cccc(CCCO/N=C(\C)c2ccc3ccccc3n2)n1 [P.34],≥ 80,≥ 80,–,–
CO/N=C(\C)c1cccc(CCCO/N=C/c2nc(C)ccc2O)n1 [P.35],≥ 80,≥ 80,≥ 80,inhibition at 200 ppm [5]: ≥ 80%; inhibition at 200 ppm (Gaeumannomyces graminis): ≥ 80%
CO/N=C(\C)c1cccc(CCCO/N=C(\C)c2cc(C#N)ccn2)n1 [P.37],–,–,–,inhibition at 200 ppm (Gaeumannomyces graminis): ≥ 80%
CO/N=C(\C)c1cccc(CCCO/N=C/c2cccc(C)n2)n1 [P.38],≥ 80,≥ 80,≥ 80,inhibition at 200 ppm [5]: ≥ 80%
CO/N=C(\C)c1cccc(CCCO/N=C/c2cccc(Oc3ccccc3)n2)n1 [P.39],≥ 80,≥ 80,≥ 80,–
CO/N=C(\C)c1cccc(CCCO/N=C(\C)c2cc(C(C)(C)C)ccn2)n1 [P.45],≥ 80,≥ 80,≥ 80,–
CO/N=C(\C)c1cccc(CCCO/N=C(\C)c2nc(C(F)(F)F)ccc2C(=O)OC)n1 [P.46],≥ 80,≥ 80,≥ 80,pest or weed control at 200 ppm [1]: ≥ 80%; inhibition at 200 ppm (Gaeumannomyces graminis): ≥ 80%
CCOC(=O)c1cc(C)cc(/C(C)=N/OCCCc2cccc(/C(C)=N/OC)n2)n1 [P.47],≥ 80,≥ 80,≥ 80,–
C=CCOc1ccc(C)nc1/C=N/OCCCc1cccc(/C(C)=N/OC)n1 [P.49],–,–,≥ 80,–
CO/N=C(\C)c1cccc(CCCO/N=C(\C)c2cccc(C#N)n2)n1 [P.50],≥ 80,≥ 80,≥ 80,–

Compound,inhibition at 200 ppm [3] [%],inhibition at 200 ppm [4] [%],inhibition at 200 ppm [6] [%],also measured
CO/N=C(\C)c1cccc(CCCO/N=C(\c2ccccc2)c2ccccn2)n1 [P.53],–,–,–,inhibition at 200 ppm (Gaeumannomyces graminis): ≥ 80%
CC/C(=N\OCCCc1cccc(/C(C)=N/OC)n1)c1ccccn1 [P.54],–,–,–,inhibition at 200 ppm (Gaeumannomyces graminis): ≥ 80%
CO/N=C(\C)c1cccc(CCCO/N=C2\CCCc3ccc(C)nc32)n1 [P.57],≥ 80,≥ 80,≥ 80,pest or weed control at 200 ppm [1]: ≥ 80%; inhibition at 200 ppm [2]: ≥ 80%; inhibition at 200 ppm [5]: ≥ 80%; inhibition at 200 ppm (Gaeumannomyces graminis): ≥ 80%
"CO/N=C(\C)c1cccc(CCCO/N=C2\CCCc3cnc(C)nc32)n1 [P.60, 2-Methyl-6,7-dihydro-5H-quinazolin-8-one O-[3-(6-(1-((E)-methoxyimino)-ethyl)-pyridin-2-yl)-propyl]-oxime]",–,–,≥ 80,–
"CO/N=C(\C)c1cccc(CCCO/N=C2\CCCc3cnc(-c4ccccc4)nc32)n1 [P.61, 2-Phenyl-6,7-dihydro-5H-quinazolin-8-one O-[3-(6-(1-((E)-methoxyimino)-ethyl)-pyridin-2-yl)-propyl]-oxime]",≥ 80,≥ 80,≥ 80,pest or weed control at 200 ppm [1]: ≥ 80%; inhibition at 200 ppm (Gaeumannomyces graminis): ≥ 80%
CO/N=C(\C)c1cccc(CCCO/N=C2\CCCc3cnc(-c4cccc(C)n4)nc32)n1 [P.64],–,≥ 80,–,–
CO/N=C(\C)c1cccc(CCCO/N=C2\CCCc3cncnc32)n1 [P.65],–,≥ 80,–,–
CO/N=C(\C)c1cccc(CCCO/N=C(\C)c2nc(OC)cc(OC)n2)n1 [P.66],–,≥ 80,≥ 80,–
CCOc1cc(OCC)nc(/C(C)=N/OCCCc2cccc(/C(C)=N/OC)n2)n1 [P.67],≥ 80,≥ 80,≥ 80,–
CO/N=C(\C)c1cccc(CCCO/N=C(\c2ccccc2)c2nc(OC)cc(OC)n2)n1 [P.68],≥ 80,–,≥ 80,–
CO/N=C(\C)c1cccc(CCCO/N=C(\C)c2cc(C)c3ccccc3n2)n1 [P.71],–,≥ 80,–,–
CO/N=C(\C)c1cccc(CCCO/N=C(\C)c2cccc(CCCOCc3ccccc3)n2)n1 [P.75],≥ 80,≥ 80,≥ 80,–
CO/N=C(\C)c1cccc(CCCO/N=C(\C)c2cccc(CCCO)n2)n1 [P.77],≥ 80,≥ 80,≥ 80,–
CO/N=C(\C)c1cccc(CCCO/N=C(\C)c2cccc(C#CCO)n2)n1 [P.78],≥ 80,–,≥ 80,inhibition at 200 ppm [5]: ≥ 80%
CO/N=C(\C)c1cccc(CCCO/N=C(\C)c2cccc(C#CC(C)(C)C)n2)n1 [P.79],–,≥ 80,≥ 80,–
CO/N=C(\C)c1cccc(CCCO/N=C2\CCCc3c2nc2cnccc2c3C)n1 [P.80],≥ 80,≥ 80,≥ 80,inhibition at 200 ppm [5]: ≥ 80%
CCCCc1c2c(nc3ccc(Cl)cc13)/C(=N/OCCCc1cccc(/C(C)=N/OC)n1)CCC2 [P.85],≥ 80,≥ 80,–,–
CO/N=C(\C)c1cccc(CCCO/N=C2\COCc3c2nc2ccccc2c3C)n1 [P.89],≥ 80,≥ 80,≥ 80,–
CO/N=C(\C)c1cccc(CCCO/N=C2\CCCc3c2nc2c(C)cccc2c3C)n1 [P.90],≥ 80,≥ 80,≥ 80,inhibition at 200 ppm [2]: ≥ 80%
CO/N=C(\C)c1cccc(CCCO/N=C2\CCCc3c2nc2ccccc2c3-c2ccccc2)n1 [P.99],≥ 80,≥ 80,≥ 80,inhibition at 200 ppm [2]: ≥ 80%; inhibition at 200 ppm [5]: ≥ 80%
CO/N=C(\C)c1cccc(CCCON=C(CC#N)c2ccccn2)n1 [P.105],–,–,–,inhibition at 200 ppm (Gaeumannomyces graminis): ≥ 80%
CO/N=C(\C)c1cccc(CCCON=C(c2ccc(-n3cccc3)c(C)c2)c2ccccn2)n1 [P.107],–,–,≥ 80,–
CO/N=C(\C)c1cccc(CCCON=C(CCN(C)C)c2cccc(Br)n2)n1 [P.108],–,–,≥ 80,–
